The text below walks through data of US5866684A, “Peptidyl inhibitors of viral proteases” (Hoffmann-La Roche Inc., priority 1996, dated 1999).

Numbered stars: 1 amine (or outer) side, 2 acyl side, 3 side chain; on linkers, the order of the positions; unused ones are H or OH. Square brackets hold non-standard residues; d marks the D form. Peptide text beside a SMILES is read from it. X1 = CC(F)(F)C[C@H](N[*:1])C(=O)[*:2]; Phe(2-Me) = Cc1ccccc1C[C@H](N)C(=O)O; Suc = O=C(CCC(=O)[*:2])[*:1]; Tle = CC(C)(C)[C@H](N)C(=O)O

For the test, the target named is T1, HCV proteinase (Hepatitis C virus genotype 1b, UniProt P26662).
T1 construct: Regions encompassing the NS3 proteinase domain (amino acids 1007-1219); made in house; host or cells: E. coli strain MC1061
T1 sequence (P26662 1007-1219): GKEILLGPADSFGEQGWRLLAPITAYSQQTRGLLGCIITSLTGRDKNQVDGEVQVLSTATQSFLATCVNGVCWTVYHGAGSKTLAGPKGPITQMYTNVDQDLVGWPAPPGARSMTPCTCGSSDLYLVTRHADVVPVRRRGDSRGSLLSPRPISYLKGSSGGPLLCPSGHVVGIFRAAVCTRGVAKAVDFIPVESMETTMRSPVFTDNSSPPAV
Description: HCV proteinase inhibition: cleavage of quenched fluorescence substrate NS4A/B.F peptide by enzyme MBP-NS3"Gly12-NS4A. In kind it is biochemical. The note with it: enzyme MBP-NS3"Gly12-NS4A 1 μg in 200 μl, pH 8.5, 15 minutes preincubation, NS4A/B.F peptide 10 μM, read after a further 10 minutes. The text has this: As mentioned earlier, the compounds of formula I and salts of acidic compounds of formula I with bases are inhibitors of proteases of viral origin.
The nucleotide sequence of this expression plasmid is given in FIGS. 1a-j appended hereto and the amino acid sequence of its expression product is given in FIG. 2 appended hereto. It is based on the pMAL®-c2 vector supplied by New England Biolabs, Inc. (32 Tozer Rd., Beverly, Mass., USA). The principle of the construction was to create an in-frame fusion of the maltose binding protein (MBP) gene supplied by the pMAL-c2 vector, and sequences of the HCV genome necessary for NS3 proteinase activity. These HCV sequences were inserted between the EcoRI and HindIII sites of the pMAL-c2 polylinker (positions 2695 and 3556 respectively of the sequence given in FIGS. 1a-j).
HCV sequences were derived from plasmids pDS 3348-4045 and pBFK 3348-6062, described by Bartenschlager et al, 1993 (Journal of Virology, 67, 3835-3844). Regions encompassing the NS3 proteinase domain (amino acids 1007-1219) and the NS4A domain (amino acids 1658-1711) were isolated and inserted into the pMAL-c2 vector using standard recombinant DNA techniques, including the PCR amplification of required sequences. Between the NS3 and NS4A domains, a linker region was constructed using synthetic oligonucleotides (positions 3343-3390; amino acids 606-621). The resulting plasmid was used to transform E. coli (strain MC1061) cells and expression of the MBP-NS3"Gly12 -NS4A enzyme was induced as described below.
E. coli (strain MC1061) cells transformed with the foregoing plasmid were grown in Luria broth containing ampicillin (100 μg/ml) at 37° C. The cells were grown until an optical density of 0.5 at 600 nm had been reached and enzyme expression was then induced by adding 1 mM isopropylthiogalactoside and incubating at 37° C. for a further 3 hours. The cells were harvested by centrifugation and stored at -80° C.
A pellet from 4 l of bacterial culture was resuspended in E.coli lysis buffer (20 mM Tris HCl, pH 7.5, containing 150 mM NaCl, 1 mM EDTA and 10 mM dithiothreitol) and cell lysis was achieved by two passages through a French Pressure cell. The clear supernatant obtained by centrifugation (18000 g, 30 minutes) was then applied to an amylose resin column (4×1 cm) (New England Biolabs) which had been equilibrated with ice-cold 50 mM Tris HCl, pH 8.5, containing 200 mM NaCl, 1 mM dithiothreitol and 5% glycerol. The column was washed thoroughly with the equilibration buffer and bound protein was eluted using the equilibration buffer containing 10 mM maltose. Fractions of 1 ml were collected, with fractions containing the enzyme being pooled and stored at -80° C. Enzyme concentration was assayed by the method of M. B. Bradford, Analytical Biochemistry, 1976, vol. 72, p.248.
Compounds of formula I (routinely prepared as stock solutions in DMSO) were assayed for their ability to inhibit the cleavage of a quenched fluorescence substrate [NS4A/B.F peptide (N-[4-[4-(dimethylamino)phenylazo]benzoyl]-L-α-aspartyl-L-α-glutamyl-L-methionyl-L-(x-glutamyl-L-α-glutamyl-L-cysteinyl-L-alanyl-L- seryl-L-histidyl-N5-[2-(5-sulpho-1-naphthylamino)ethyl]-L-glutaminamide); Wilkinson et al, Society for General Microbiology Meeting, University of Warwick, England, 28 Mar. 1996] based on the NS4A/4B cleavage site by enzyme MBP-NS3"Gly12 -NS4A in microtitre plates as follows:
The enzyme (1 μg) was added to 200 μl final volume of a mixture containing 50 mM Tris HCl, pH 8.5, with 1 mM dithiothreitol, 0.1% Triton X-100 and the test compound of formula I. The resulting mixture was incubated at room temperature for 15 minutes prior to starting the reaction by the addition of NS4A/B.F peptide to a final concentration of 10 μM. The progress of the reaction was evaluated with a Perseptive Biosystems Cytofluor II using an excitation wavelenth of 360 nm and an emission wavelength of 530 nm. […]
For orientation: IC50 means the concentration that inhibits the measured activity by half. The low end stands for greater potency, the high end for weaker potency. In the case of `C=CCC(C=O)NC(=O)[C@H](CC(C)C)NC(=O)[C@@H](NC(=O)[C@H](Cc1ccccc1C)NC(=O)[C@H](CCC(=O)O)NC(=O)[C@H](CC(=O)O)NC(=O)CCC(=O)O)C(C)(C)C` (mixture of isomers) [A, 2(RS)-[[N-[N-[N-[N-[N-(3-carboxypropionyl)-L-α-aspartyl]-L-α-glutamyl]-2-methyl-L-phenylalanyl]-3-methyl-L-valyl]-L-leucyl]amino]-4-pentenaldehyde], half-maximal inhibition (IC50) was put at 90 nM.
For the compound `Cc1ccccc1C[C@H](NC(=O)[C@H](CCC(=O)O)NC(=O)[C@H](CC(=O)O)NC(=O)CCC(=O)O)C(=O)N[C@H](C(=O)N[C@@H](CC(C)C)C(=O)NC(C=O)CC(F)(F)F)C(C)(C)C` (mixture of isomers) [C, 2(RS)-[[N-[N-[N-[N-[N-(3-carboxypropionyl)-L-α-aspartyl]-L-α-glutamyl]-2-methyl-L-phenylalanyl]-3-methyl-L-valyl]-L-leucyl]amino]-4,4,4-trifluorobutyraldehyde], the half-inhibitory concentration (IC50) came to 64 nM.
For the compound `C=CCC(NC(=O)[C@H](CC(C)C)NC(=O)[C@@H](NC(=O)[C@H](Cc1ccccc1C)NC(=O)[C@H](CCC(=O)O)NC(=O)[C@H](CC(=O)O)NC(=O)CCC(=O)O)C(C)(C)C)B(O)O` (mixture of isomers) [D, 1(RS)-[[N-[N-[N-[N-[N-(3-carboxypropionyl)-L-α-aspartyl]-L-α-glutamyl]-2-methyl-L-phenylalanyl]-3-methyl-L-valyl]-L-leucyl]amino]-3-butenylboronic acid], the IC50 stood at 34 nM.
`CCC(NC(=O)[C@H](CC(C)C)NC(=O)[C@@H](NC(=O)[C@H](Cc1ccccc1C)NC(=O)[C@H](CCC(=O)O)NC(=O)[C@H](CC(=O)O)NC(=O)CCC(=O)O)C(C)(C)C)B(O)O` (mixture of isomers) [E, 1(RS)-[[N-[N-[N-[N-[N-(3-carboxypropionyl)-L-α-aspartyl]-L-α-glutamyl]-2-methyl-L-phenylalanyl]-3-methyl-L-valyl]-L-leucyl]amino]propylboronic acid] showed a half-maximal inhibitory concentration (IC50) of 38 nM.
`CCCC(NC(=O)[C@H](CC(C)C)NC(=O)[C@@H](NC(=O)[C@H](Cc1ccccc1C)NC(=O)[C@H](CCC(=O)O)NC(=O)[C@H](CC(=O)O)NC(=O)CCC(=O)O)C(C)(C)C)B(O)O` (mixture of isomers) [F, 1(RS)-[[N-[N-[N-[N-[N-(3-carboxypropionyl)-L-α-aspartyl]-L-α-glutamyl]-2-methyl-L-phenylalanyl]-3-methyl-L-valyl]-L-leucyl]amino]butylboronic acid] gave an IC50 of 160 nM.
The same measure for `Cc1ccccc1C[C@H](NC(=O)[C@H](CCC(=O)O)NC(=O)[C@H](CC(=O)O)NC(=O)CCC(=O)O)C(=O)N[C@H](C(=O)N[C@@H](CC(C)C)C(=O)N[C@H](C=O)CC(C)(F)F)C(C)(C)C` [B, 2(S)-[[N-[N-[N-[N-[N-(3-carboxypropionyl)-L-α-aspartyl]-L-α-glutamyl]-2-methyl-L-phenylalanyl]-3-methyl-L-valyl]-L-leucyl]amino]-4,4-difluorovaleraldehyde] (Suc-DE[Phe(2-Me)][Tle]L[X1]-aldehyde): 70 nM.
